Source: patent US12421242B2, “Substituted tetrahydropyrrolo-pyridinone compounds and their use in treating medical conditions” (Karuna Therapeutics, Inc., priority 2022, dated 2025)
pEC50: −log10 of the molar value.

What was measured:
rM4 receptors = biological target: T1, rM4 receptors (Rattus norvegicus, UniProt P08485); test: Rat M4 PAM pERK assay; type: cell-based; conditions: PAM mode
T1 construct: expressed in transfected cells; host or cells: CHO cells
T1 sequence (P08485 1-478): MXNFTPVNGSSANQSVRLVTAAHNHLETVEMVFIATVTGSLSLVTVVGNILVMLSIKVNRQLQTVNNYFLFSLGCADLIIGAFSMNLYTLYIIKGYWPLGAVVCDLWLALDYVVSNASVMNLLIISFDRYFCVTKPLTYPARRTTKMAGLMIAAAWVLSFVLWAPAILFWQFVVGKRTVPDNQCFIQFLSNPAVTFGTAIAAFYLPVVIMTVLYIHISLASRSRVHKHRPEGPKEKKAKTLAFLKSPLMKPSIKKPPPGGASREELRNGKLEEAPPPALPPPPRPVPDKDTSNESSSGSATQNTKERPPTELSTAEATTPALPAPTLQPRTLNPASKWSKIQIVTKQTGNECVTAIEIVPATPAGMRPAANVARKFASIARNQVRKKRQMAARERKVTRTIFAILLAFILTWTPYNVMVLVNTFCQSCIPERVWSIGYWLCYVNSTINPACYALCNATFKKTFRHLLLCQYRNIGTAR
Method in brief: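 CHO cells expressing hM4 or rM4 were serum-starved 4 h, then given compound (ten-point curve, 10 μM top, duplicate) with an EC20 of acetylcholine (10 nM final) for 5 min at 37° C. Phospho-ERK in lysates was detected by TR-FRET.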

[1] = test system: AMP-evoked hyperlocomotion; test: Amphetamine-evoked hyperlocomotion in rats (open field); type: in vivo; conditions: adult male Sprague Dawley rats; 0.5 mg/kg amphetamine s.c.; distance traveled during the last 60 minutes of the 90-minute session
Method: Compounds may be tested for ability to impact behavior activity of rats according to the following procedures. Animals: Adult male, Sprague Dawley rats (Envigo, Indianapolis, IN, USA) are housed in a colony maintained at 23° C. with 12 h light/dark cycles (lights on at 0600 hours). All animals weigh 290-330 g at the beginning of the study and are equally divided into 5 groups (n=8 per group) and received one of the treatment conditions listed below. Behavioral Procedures: Studies are conducted in MedAssociates open field chambers (27.3 cm×27.3 cm×20.3 cm, MedAssociates, St. Albans, VT) in which movement is automatically tracked and recorded by 16 beam arrays. The administration pretreatment of the test article is determined to coincide with Tmax at the time of the amphetamine-evoked session with optimal route of administration. All groups are subcutaneously treated with 0.5 mg/kg amphetamine (AMP). The test article is tested in three dose groups with a half-log increase between doses. […] Locomotor data (distance traveled) is recorded as 5-minute bins throughout the 90-minute session. […] Statistical Analysis: Spontaneous locomotion (prior to AMP administration) is calculated as the total distance traveled during the first 30 minutes of the experimental session. AMP-evoked responses are calculated as the total distance traveled during the last 60 minutes of the experimental session which commenced immediately after AMP administration. Locomotor data may be analyzed by a one-way ANOVA. When there is a significant overall ANOVA, post hoc comparisons may be made by Dunnett's test with statistical significance determined as p<0.05. […] Behavioral Procedures: Studies were conducted in MedAssociates open field chambers (27.3 cm×27.3 cm×20.3 cm, MedAssociates, St. Albans, VT) in which movement was automatically tracked and recorded by 16 beam arrays. Administration pretreatment of the test article was determined to coincide with Tmax at the time of the amphetamine-evoked session with optimal route of administration. […]

Structure (SMILES)	pEC50 (rM4 receptors)	Dose Amount of Compound at which rats displayed a reduction in amphetamine-evoked hyperlocomotion activity [1]
COc1c2c(n(C)c(=O)c1C)CN(C(=O)c1cnn(C(F)(F)F)c1)C2 [Compound I-87]	< 5.70	32 mg/kg
Cc1c2c(n(C)c(=O)c1Cl)CN(C(=O)c1cnn(C(F)(F)F)c1)C2 [Compound I-1, 3-chloro-1,4-dimethyl-6-(1-(Trifluoromethyl)-1H-pyrazole-4-carbonyl)-1,5,6,7-tetrahydro-2H-pyrrolo[3,4-b]pyridin-2-one]	5.70 to 6.30	32 mg/kg
Cc1c2c(n(C)c(=O)c1Cl)CN(C(=O)c1cnn(C(F)(F)F)c1)[C@@H]2C [Compound I-76, (R)-3-Chloro-1,4,5-trimethyl-6-(1-(trifluoromethyl)-1H-pyrazole-4-carbonyl)-1,5,6,7-tetrahydro-2H-pyrrolo[3,4-b]pyridin-2-one]	6.30 to 7.00	3.2 mg/kg
